pIC50: −log10 of the molar value.

In this test the target is recombinant mTOR (FLAG-tagged, residues 1362-2549) (Homo sapiens, UniProt P42345). Description: In vitro mTOR kinase assay (Test (a), AlphaScreen). Type of test: biochemical. To be noted: ATP 20 μM, read-out: Test (a): IC50 versus mTOR kinase. A digest of the protocol: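 AlphaScreen read-out: a phospho-T389 p70 S6K antibody on acceptor beads captures the phosphorylated biotin-peptide on donor beads, with signal loss indicating inhibition.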
recombinant mTOR (FLAG-tagged, residues 1362-2549), sequence (P42345 1362-2549): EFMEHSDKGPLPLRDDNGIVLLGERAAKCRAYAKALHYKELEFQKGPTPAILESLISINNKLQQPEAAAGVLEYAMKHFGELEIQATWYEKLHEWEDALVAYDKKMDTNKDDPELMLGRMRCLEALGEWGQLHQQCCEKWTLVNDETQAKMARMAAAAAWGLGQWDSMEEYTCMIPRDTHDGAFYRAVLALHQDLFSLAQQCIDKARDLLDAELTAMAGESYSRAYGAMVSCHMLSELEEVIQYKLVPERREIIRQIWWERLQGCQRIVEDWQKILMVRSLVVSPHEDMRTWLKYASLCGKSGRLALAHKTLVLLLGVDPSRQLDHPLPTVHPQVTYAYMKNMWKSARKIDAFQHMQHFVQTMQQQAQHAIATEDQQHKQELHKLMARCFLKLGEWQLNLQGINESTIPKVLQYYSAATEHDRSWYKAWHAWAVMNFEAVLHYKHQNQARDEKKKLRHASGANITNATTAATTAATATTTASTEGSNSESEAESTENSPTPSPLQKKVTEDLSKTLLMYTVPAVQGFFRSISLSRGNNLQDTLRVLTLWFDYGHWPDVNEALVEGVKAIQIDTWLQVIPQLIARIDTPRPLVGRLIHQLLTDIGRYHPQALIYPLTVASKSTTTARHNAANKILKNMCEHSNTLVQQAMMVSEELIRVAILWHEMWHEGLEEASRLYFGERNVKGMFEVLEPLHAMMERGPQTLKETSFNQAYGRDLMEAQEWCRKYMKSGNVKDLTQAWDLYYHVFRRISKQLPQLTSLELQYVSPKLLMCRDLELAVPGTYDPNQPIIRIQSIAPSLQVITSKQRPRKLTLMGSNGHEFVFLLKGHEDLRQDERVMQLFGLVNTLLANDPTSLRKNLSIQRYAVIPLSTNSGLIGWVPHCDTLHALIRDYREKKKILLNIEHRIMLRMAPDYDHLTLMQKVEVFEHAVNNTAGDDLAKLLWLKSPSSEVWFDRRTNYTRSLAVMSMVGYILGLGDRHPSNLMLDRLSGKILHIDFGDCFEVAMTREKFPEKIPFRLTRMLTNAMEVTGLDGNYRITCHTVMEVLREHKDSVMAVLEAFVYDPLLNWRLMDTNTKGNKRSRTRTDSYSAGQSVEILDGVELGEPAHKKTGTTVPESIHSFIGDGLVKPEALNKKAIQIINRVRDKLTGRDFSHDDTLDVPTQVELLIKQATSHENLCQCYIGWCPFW
With `CC(C)S(=O)(=O)Cc1cc(N2CCOCC2)nc(-c2ccc(NC(=O)NC3CC3)cc2)n1` [Example 20m, 3-cyclopropyl-1-[4-[4-morpholin-4-yl-6-(propan-2-ylsulfonylmethyl)pyrimidin-2-yl]phenyl]urea], the pIC50 is 7.09.
Take `CC(C)S(=O)(=O)Cc1cc(N2CCOCC2)nc(-c2ccc(NC(=O)NCCN(C)C)cc2)n1` [Example 20n, 3-(2-dimethylaminoethyl)-1-[4-[4-morpholin-4-yl-6-(propan-2-ylsulfonylmethyl)pyrimidin-2-yl]phenyl]urea]: the pIC50 is 6.07.
The same measure for `CC(C)S(=O)(=O)Cc1cc(N2CCOCC2)nc(-c2ccc(NC(=O)NC3CCN(C)CC3)cc2)n1` [Example 20o, 3-(1-methyl-4-pipendyl)-1-[4-[4-morpholin-4-yl-6-(propan-2-ylsulfonylmethyl)pyrimidin-2-yl]phenyl]urea]: 5.89; for `COCCNC(=O)Nc1ccc(-c2nc(CS(=O)(=O)C(C)C)cc(N3CCOCC3)n2)cc1` [Example 20p, 3-(2-methoxyethyl)-1-[4-[4-morpholin-4-yl-6-(propan-2-ylsulfonylmethyl)pyrimidin-2-yl]phenyl]urea]: 6.04.
The same measure for `CCNC(=O)Nc1ccc(-c2nc(CS(=O)(=O)C(C)C)cc(N3CCOC[C@@H]3C)n2)cc1` [Example 20q, 1-ethyl-3-[4-[4-[(3S)-3-methylmorpholin-4-yl]-6-(propan-2-ylsulfonylmethyl)pyrimidin-2-yl]phenyl]urea]: 7.41; for `CC(C)S(=O)(=O)Cc1cc(N2CCOC[C@@H]2C)nc(-c2ccc(NC(=O)NC3CC3)cc2)n1` [Example 20r, 3-cyclopropyl-1-[4-[4-[(3S)-3-methylmorpholin-4-yl]-6-(propan-2-ylsulfonylmethyl)pyrimidin-2-yl]phenyl]urea]: 7.03; for `CC(C)S(=O)(=O)Cc1cc(N2CCOC[C@@H]2C)nc(-c2ccc(NC(=O)NCCN(C)C)cc2)n1` [Example 20s, 3-(2-dimethylaminoethyl)-1-[4-[4-[(3S)-3-methylmorpholin-4-yl]-6-(propan-2-ylsulfonylmethyl)pyrimidin-2-yl]phenyl]urea]: 6.21.
The value for `CC(C)S(=O)(=O)Cc1cc(N2CCOC[C@@H]2C)nc(-c2ccc(NC(=O)NC3CCN(C)CC3)cc2)n1` [Example 20t, 1-[4-[4-[(3S)-3-methylmorpholin-4-yl]-6-(propan-2-ylsulfonylmethyl)pyrimidin-2-yl]phenyl]-3-(1-methyl-4-piperidyl)urea] was 6.22.
Regarding `COCCNC(=O)Nc1ccc(-c2nc(CS(=O)(=O)C(C)C)cc(N3CCOC[C@@H]3C)n2)cc1` [Example 20u, 3-(2-methoxyethyl)-1-[4-[4-[(3S)-3-methylmorpholin-4-yl]-6-(propan-2-ylsulfonylmethyl)pyrimidin-2-yl]phenyl]urea], the pIC50 is 6.57.
On to `CNC(=O)Nc1ccc(-c2nc(N3CCOCC3)cc(C(C)(C)S(C)(=O)=O)n2)cc1` [Example 21, 3-Methyl-1-[4-[4-(2-methylsulfonylpropan-2-yl)-6-morpholin-4-yl-pyrimidin-2-yl]phenyl]urea], for which the pIC50 was 7.30.
The value for `CCNC(=O)Nc1ccc(-c2nc(N3CCOCC3)cc(C(C)(C)S(C)(=O)=O)n2)cc1` [Example 21a, 1-ethyl-3-[4-[4-(2-methylsulfonylpropan-2-yl)-6-morpholin-4-yl-pyrimidin-2-yl]phenyl]urea] was 6.14; that for `CC(C)(c1cc(N2CCOCC2)nc(-c2ccc(NC(=O)NC3CC3)cc2)n1)S(C)(=O)=O` [Example 21b, 3-cyclopropyl-1-[4-[4-(2-methylsulfonylpropan-2-yl)-6-morpholin-4-yl-pyrimidin-2-yl]phenyl]urea] was 6.44; that for `CN(C)CCNC(=O)Nc1ccc(-c2nc(N3CCOCC3)cc(C(C)(C)S(C)(=O)=O)n2)cc1` [Example 21c, 3-(2-dimethylaminoethyl)-1-[4-[4-(2-methylsulfonylpropan-2-yl)-6-morpholin-4-yl-pyrimidin-2-yl]phenyl]urea] was 6.32.
The same measure for `CN1CCC(NC(=O)Nc2ccc(-c3nc(N4CCOCC4)cc(C(C)(C)S(C)(=O)=O)n3)cc2)CC1` [Example 21d, 3-(1-methyl-4-piperidyl)-1-[4-[4-(2-methylsulfonylpropan-2-yl)-6-morpholin-4-yl-pyrimidin-2-yl]phenyl]urea]: 6.57.
For `COCCNC(=O)Nc1ccc(-c2nc(N3CCOCC3)cc(C(C)(C)S(C)(=O)=O)n2)cc1` [Example 21e, 3-(2-methoxyethyl)-1-[4-[4-(2-methylsulfonylpropan-2-yl)-6-morpholin-4-yl-pyrimidin-2-yl]phenyl]urea], the negative-log IC50 (pIC50) was 6.00.
The value for `CNC(=O)Nc1ccc(-c2nc(N3CCOC[C@@H]3C)cc(C(C)(C)S(C)(=O)=O)n2)cc1` [Example 21f, 3-methyl-1-[4-[4-[(3S)-3-methylmorpholin-4-yl]-6-(2-methylsulfonylpropan-2-yl)pyrimidin-2-yl]phenyl]urea] was 7.77.
With `CCNC(=O)Nc1ccc(-c2nc(N3CCOC[C@@H]3C)cc(C(C)(C)S(C)(=O)=O)n2)cc1` [Example 21g, 1-ethyl-3-[4-[4-[(3S)-3-methylmorpholin-4-yl]-6-(2-methylsulfonylpropan-2-yl)pyrimidin-2-yl]phenyl]urea], the pIC50 was 7.70.
In the case of `C[C@H]1COCCN1c1cc(C(C)(C)S(C)(=O)=O)nc(-c2ccc(NC(=O)NCCN(C)C)cc2)n1` [Example 21i, 3-(2-dimethylaminoethyl)-1-[4-[4-[(3S)-3-methylmorpholin-4-yl]-6-(2-methylsulfonylpropan-2-yl)pyrimidin-2-yl]phenyl]urea], the pIC50 was 7.12.
The same measure for `C[C@H]1COCCN1c1cc(C(C)(C)S(C)(=O)=O)nc(-c2ccc(NC(=O)NC3CCN(C)CC3)cc2)n1` [Example 21j, 1-[4-[4-[(3S)-3-methylmorpholin-4-yl]-6-(2-methylsulfonylpropan-2-yl)pyrimidin-2-yl]phenyl]-3-(1-methyl-4-piperidyl)urea]: 6.29; for `COCCNC(=O)Nc1ccc(-c2nc(N3CCOC[C@@H]3C)cc(C(C)(C)S(C)(=O)=O)n2)cc1` [Example 21k, 3-(2-methoxyethyl)-1-[4-[4-[(3S)-3-methylmorpholin-4-yl]-6-(2-methylsulfonylpropan-2-l)pyrimidin-2-yl]phenyl]urea]: 6.51.
For `C[C@H]1COCCN1c1cc(CS(C)(=O)=O)nc(-c2ccc(NC(=O)Nc3ncccn3)cc2)n1` [Example 22a, 1-[4-[4-[(3S)-3-methylmorpholin-4-yl]-6-(methylsulfonylmethyl)pyrimidin-2-yl]phenyl]-3-pyrimidin-2-yl-urea], the pIC50 was 7.22.
`Cc1cccc(C)c1NC(=O)Nc1ccc(-c2nc(CS(C)(=O)=O)cc(N3CCOC[C@@H]3C)n2)cc1` [Example 22b, 1-(2,6-dimethylphenyl)-3-[4-[4-[(3S)-3-methylmorpholin-4-yl]-6-(methylsulfonylmethyl)pyrimidin-2-yl]phenyl]urea]: the negative-log IC50 (pIC50) is 5.80.
The value for `Cc1cc(NC(=O)Nc2ccc(-c3nc(CS(C)(=O)=O)cc(N4CCOC[C@@H]4C)n3)cc2)no1` [Example 22d, 3-[4-[4-[(3S)-3-methylmorpholin-4-yl]-6-(methylsulfonylmethyl)pyrimidin-2-yl]phenyl]-1-(5-methyl-1,2-oxazol-3-yl)urea] was 8.32.

These data come from patent US7750003B2, “Compounds-943” (AstraZeneca AB, priority 2006, dated 2010).
